# Experimental data taken from patent US11065319B2, “Methods for diagnosing and reducing incidences of cardiac allograft rejection” (3DT Holdings, LLC, priority 2014, dated 2021).
# Values joined by “and” are separate entries in the source; they are usually repeats but may differ in a detail not shown here. Equal values may be shown once. “Also recorded” adds a separate entry of the source.
# Tests used:
# [1] = system: IgM in human heart biopsies; experiment: Displacement (elution) of IgM from human heart transplant biopsies; assay type: binding; conditions: for removal of IgM from heart biopsies by incubation: PC 50 mM, CRP 2.58 mg/ml, albumin 1 mg/ml; for vascular IgM in biopsy after incubation (immunohistochemistry): displacement experiments; for IgM anti-PC in biopsy eluates (ELISA): eluates after incubation of biopsies; for IgM in western blots of biopsy eluates: following incubation of biopsies
# Protocol: To verify if the IgM removed from the heart biopsies is PC-specific, ELISA was performed.
# One hundred and seventy-two (172) adult heart transplant patients (having a number of serial biopsies per patient in first three months post-transplant) were followed for several years and subsequently analyzed. CAV was diagnosed with serial angiographies for each patient. The percentage of microvascular IgM was quantified with double staining (IgM/CD31 or Ulex europaeus lectin). IgM and IgM anti-phosphorylcholine (PC) from biopsy eluates were determined with immunoblotting and enzyme-linked immunosorbent assays (ELISAs). Statistical analyses used univariate logistic regression, multivariate stepwise models, and Kaplan-Meier curves for different tertile groups.
# [2] = system: human aortic and microvascular endothelial cells; experiment: Incubation of cultured endothelial cells with CRP (cell activation); assay type: cell-based; conditions: incubation with CRP vs controls without CRP
# Description: Additionally, note the absence of ICAM-1 (subpart A of FIG. 7) and NF-κB nuclear expression (subpart C of FIG. 7) in the controls that lacked CRP exposure.
# IgM anti-PC NAbs = experiment: PC-KLH immunization of mice, serum IgM anti-PC by ELISA; assay type: in vivo
# Description: In group 1, normal C57BL/6 mice (IgG+IgM producers) were immunized by PC-keyhole limpet hemocyanin (PC-KLH) to induce anti-PC NAb production. In group 2, IgM-deficient mice that have impaired IgM antibody production, but still have an IgG response were immunized.
# As controls for PC immunization, mice of the same genotypes were vaccinated with KLH. These procedures define the conditions of a 2×2 factorial design, as depicted in Table 1, with 2 immunization conditions (PC or KLH), and 2 mouse genotypes (normal C57BL/6 and IgM-deficient). Eight weeks after immunization, all mice were euthanized by CO2 inhalation. Mouse sera from these animals was subsequently used to conduct the two in vitro studies. Additionally, the mouse serum IgM-anti-PC was analyzed using custom ELISA. Specifically, to establish the inflammatory milieu in the mouse sera used for the in vitro experiments, the sera was analyzed for pro-inflammatory TNF-α, IFN-γ, IL-1β, IL-6, IL-12 and anti-inflammatory IL-10 IL-4, IL-13, and TGF-β cytokines (SearchLight Multiplex Assay System, Aushom Biosystems).
# cardiac allograft = experiment: Heterotopic heart transplant model of CAV with PC vaccination; assay type: in vivo, mice; conditions: mouse model of heart transplantation
# Protocol: In addition to the mechanisms underlying MΦ differentiation and the effect of NAbs thereon, it is also important to identify what artheroprotective effect (if any) a PC vaccination may have in vivo. In an attempt to determine if experimental induction of IgM anti-PC NAbs have a beneficial effect on graft rejection and survival, experiments were conducted in an in vivo heart transplant model to measure such antibodies' affect on CAV and graft survival. Specifically, heart transplants and experimental vaccination were performed in normal mice (C57BL/6) and in IgM-deficient mice. Thereafter, IgM antibody response was measured, and a determination made as to what (if any) effect the vaccination had on graft survival.
# The study used a 2×3 factorial design to test the (a) main effect of immunization defined by 3 conditions: experimental vaccination vs. negative control (vaccination with KLH vehicle) vs. positive control (intra-peritoneal mouse polyclonal IgM); and (b) main effect of mouse genotype—normal C57BL/6 vs. IgM-deficient mice—on cardiac graft rejection (see Table 2). […]
# All mice underwent heart transplantation at 16 weeks of age, 8 weeks after initial vaccination. […] Cardiac allograft viability was thereafter assessed by daily abdominal palpation. […]
# Graft survival curves were calculated in accordance with the Kaplan-Meier method. […]
Molecule,removal of IgM from heart biopsies by incubation [1],vascular IgM in biopsy after incubation (immunohistochemistry) [1],IgM anti-PC in biopsy eluates (ELISA) [1],IgM in western blots of biopsy eluates [1],ICAM-1 expression [2],NF-κB nuclear localization [2],production of specific IgM anti-PC NAbs (IgM anti-PC NAbs),graft survival (cardiac allograft)
"CRP: C-reactive protein, pro-inflammatory molecule",removed IgM from the biopsies; also recorded: can be removed,removal of IgM; also recorded: showed biopsy removal,60.49±18.26 U/ml and 60.5±18.3 U/ml,showed IgM,increased ICAM-1 expression,nuclear factor-kappa B (NF-κB) nuclear localization,–,–
"C[N+](C)(C)CCOP(=O)(O)O [PC, phosphorylcholine]",removed IgM from the biopsies; also recorded: can be removed,removal of IgM; also recorded: showed biopsy removal,56.67±19.96 U/ml and 56.7±20.0 U/ml,showed IgM,–,–,induced the production of specific IgM anti-PC NAbs,positive effect on graft survival
